Data on 8 compounds can be found in US4407795A, “Inclusion compound of p-hexadecylamino benzoic acid in cyclodextrin and method of use” (American Cyanamid Company, priority 1981, dated 1983).

For data set [1] the following is noted: in vivo; cited from earlier work.
For data set [2] the following is noted: rat; cited from earlier work.
A short description of data set [3]: Effects on arterial wall / atherosclerotic plaque. Type of data set: in vivo.
Data set [4] relates to fatty acyl-CoA: cholesterol acyl transferase (ACAT). Nature of the data set: Inhibition of arterial cholesterol-esterifying enzyme. It is filed as biochemical. The note with it: in words.
A further data set can be described thus: Serum lipoproteins. Type of data set: in vivo.
Data set [5] in a line: Luminal narrowing and myocardial blood flow. Type of data set: in vivo.
For data set [6] the following is noted: cited from earlier work.
For data set [7] the following is noted: in words; cited from earlier work.
For data set [8] the following is noted: mainly as glucose formed by enzymatic hydrolysis; cited from earlier work.

“Also recorded” adds a separate entry of the source.

In the case of `N[C@H](Cc1cc(I)c(Oc2cc(I)c(O)c(I)c2)c(I)c1)C(=O)O` [D-thyroxine], in [1], the lowering blood lipids result is “effective to varying degrees in lowering blood lipids”.

As for `COc1ccc2c(c1)c(CC(=O)O)c(C)n2C(=O)c1ccc(Cl)cc1` [Indomethacin], the “bioavailability with β-cyclodextrin” value in data set [2] is “enhance the bioavailability”.

Regarding `CCOC(=O)C(C)(C)Oc1ccc(Cl)cc1` [clofibrate], the lowering blood lipids entry in data set [1] is “effective to varying degrees in lowering blood lipids”.

As for `O=C(O)c1cccnc1` [nicotinic acid], in [1], the lowering blood lipids entry is reported as “effective to varying degrees in lowering blood lipids”.

`CCCCCCCCCCCCCCCCNc1ccc(C(=O)[O-])cc1.[Na+]` [p-hexadecylamino benzoic acid sodium salt]: in [3] (arterial wall), the “area and thickness of the plaque (incidence and severity of plaque formation)” value was “decrease of both the area and the thickness of the plaque”; the “deposition of collagen and elastin” value is “reduction of deposition of connective-tissue collagen and elastic-fiber elastin”; the “formation of the extracellular matrix and trapping of very low-density lipoproteins” value is “lowering of the formation of the extracellular matrix and its trapping of very low-density lipoproteins”; the “immobilization of cholesterol in the form of ester” value is given as “decreased immobilization of cholesterol in the form of ester”. Further, in [3] (arterial wall), the smooth-muscle cell proliferation result is “decreased smooth-muscle cell proliferation”. For the same compound, in data set [3] (arterial wall / plaque, sodium salt), the calcium deposition result is given as “reduced calcium deposition; also recorded: minimizes the calcium deposition in the plaque”. For the same compound, the progression of atherosclerosis entry in data set [3] (in words) is reported as “inhibit the progression of atherosclerosis”. Further, in [4], the “inhibition of arterial cholesterol-esterifying enzyme (ACAT)” value is “inhibited by this compound”. Also, the “high-density lipoprotein in the serum, increase” value in “Serum lipoproteins” (in vivo) is reported as 2 fold. For the same compound, in the data set “Serum lipoproteins” (in words), the HDL concentrations result is “elevates HDL concentrations” and the very low-density lipoproteins result is “antiatherogenic decrease in the atherogenic very low-density lipoproteins”. In addition, the “reduction in the luminal narrowing” value in data set [5] (4 major coronary arteries) was 2 fold. Also, in data set [5] (major peripheral arteries), the “luminal narrowing in major peripheral arteries” value is given as “Reductions in luminal narrowing are seen in major peripheral arteries as well”. Also, the myocardial blood flow entry in data set [5] (non-stressed and stressed heart) is “increases in myocardial blood flow in the non-stressed and the stressed heart”.

For the compound `O=C(O)c1ccccc1O` [salicylic acid], the “bioavailability in man as β-cyclodextrin inclusion compound” value in data set [6] is given as “increased bioavailability”.

On to `CCCCCCCCCCCCCCCCCC(=O)O` [stearic acid], for which the “bioavailability with β-cyclodextrin” value in data set [2] is “enhance the bioavailability”.

For the compound `OC[C@H]1O[C@@H]2O[C@H]3[C@H](O)[C@@H](O)[C@@H](O[C@H]4[C@H](O)[C@@H](O)[C@@H](O[C@H]5[C@H](O)[C@@H](O)[C@@H](O[C@H]6[C@H](O)[C@@H](O)[C@@H](O[C@H]7[C@H](O)[C@@H](O)[C@@H](O[C@H]8[C@H](O)[C@@H](O)[C@@H](O[C@H]1[C@H](O)[C@H]2O)O[C@@H]8CO)O[C@@H]7CO)O[C@@H]6CO)O[C@@H]5CO)O[C@@H]4CO)O[C@@H]3CO` [β-cyclodextrin], the toxicity entry in [7] is given as “lack of toxicity”. In data set [8], the “absorbed by man upon oral administration” value is “less than 0.01%”.
